# From patent publication US12616713B2, “Methods for enhancing vascular density” (priority 2016, dated 2026)
# Entries after “also recorded” stand apart in the source; their conditions may differ.
# Experiments:
# NAD^+ = assay: NAD+ measurements in tissues of NMN-treated mice; type: in vivo, mouse; conditions: 18-month old mice, NMN 400 mg/kg/day in drinking water, two months; liver and gastrocnemius
# Source text: SIRT1-iKO, SIRT1-Tg and SIRT1^STOP mice were described previously (Firestein et al., 2008, PLoS One 3, e2020; Price et al., 2012, Cell Metab 15, 675-690). Tie2Cre and Sirt1^flox/flox mice were purchased from Jackson Laboratory (Bar Harbor, ME). MCK-PGC-1α and MyogCre mice were gifts from Dr. Bruce Spiegelman (Dana Farber Cancer Center, MA) and Dr. Eric N. Olson (UT Southwestern, Dallas, TX), respectively. mT-STOP^flox/flox, Gfp mouse was generated in house by E.O.W., which consists of an allele driven by ubiquitous actin B promoter, which has loxP sites flanking membrane-targeted tandem dimer Tomato (mT) and transcriptional STOP cassette, followed by a GFP coding sequence. […] SIRT1-iKO mice were fed tamoxifen (360 mg/kg) diet for five weeks to elicit whole-body SIRT1 exon 4 excision as described previously (Price et al., 2012). […] Levels of NAD^+ and NADH levels were measured in EC and muscle homogenates using commercially available kit (NAD-NADH Glo, Promega) according to manufacturer's instructions. Alternatively, NAD^+ levels in muscle and liver were measured by assay in-house developed method (Uddin et al., 2016, Front Pharmacol 7, 258). […] The other aliquot was acidified with HCl, and then neutralized with NaOH on ice to quantify NAD^+. […] Total NADH and NAD^+ were quantified using a Bio-Rad Imark microplate reader.
# HUVECs = assay: Cell apoptosis assay, HUVECs exposed to H2O2; type: cell-based, human
# Method: HUVECs were treated with PBS (vehicle), NaHS (100 μM), NMN (500 μM) or NMN+NaHS for 6 h, followed by exposure to H2O2 (600 μM) for another 4 h. After treatments, the number of apoptotic cells was determined using Annexin V-FITC apoptosis detection kit (eBioscience) as per manufacturer's instructions. Briefly, cells were collected by trypsinization and centrifugation at 1500 rpm for 5 minutes, followed by washing cell pellet twice with cold PBS and resuspending cell pellet in 1× Annexin-binding buffer. Then, 5 μL of Annexin-V FITC was added to 195 μL of cell suspension and incubated at room temperature for 15 min in the dark. After the incubation, cells were centrifuged, resuspended in 195 μL of 1× Annexin-binding buffer and then 5 μL of propidium iodide working solution was added. After mixing gently, the fluorescence intensity was detected with a flow cytometry (FACSCanto II Analyzer, BD Biosciences) at emission at 530 nm and 575 nm and excitation at 488 nm. […]
# C57BL/6J mice [1] = assay: Metabolic chambers (CLAMS) oxygen consumption; type: in vivo, mouse
# Method: Metabolic chambers (CLAMS™, Columbus Instruments, Columbus, OH) were used to perform whole-body measurements of metabolic function. Following acclimatization to the metabolic chambers, individually housed mice were monitored continuously over 48 h to determine oxygen consumption, carbon dioxide production, respiratory exchange ratio, energy expenditure, food intake, water intake and activity. Body composition (fat mass, lean mass, and total body water) was measured by EchoMRI (Echo MRI™ 900).
# SIRT1 = SIRT1 protein levels in HUVECs (Western blot); type: cell-based, human; conditions: NaHS 0.1 mM and/or NMN 0.5 mM
# Method: SDS-PAGE and Western blot analysis were performed according to standard procedures and detected with the ECL detection kit (Bio-rad, Australia). For Western blot analysis antibodies directed against SIRT1 (Sigma), SIRT3 (CST), SIRT6 (SantaCruz), eNOS (Cell Signaling Technology or CST), cleaved Notch1 (CST), total OXPHOS cocktail (Abcam), PGC-1α (Millipore), VEGF (Abcam), VEGFR2 (Abcam), phospho-VEGFR2 (Millipore), Actin (Cell Signaling Technology), Tubulin (Sigma), 14-3-3 (Cell Signaling Technology), GAPDH (SantaCruz) were used. Quantification of band intensities by densitometry was carried out using ImageJ software.
# C57BL/6J mice [2] = assay: Skeletal muscle capillaries by CD31/laminin immunofluorescence in old mice; type: in vivo, mouse; conditions: NMN 400 mg/kg/day, two months
# Source text: SIRT1-iKO, SIRT1-Tg and SIRT1^STOP mice were described previously (Firestein et al., 2008, PLoS One 3, e2020; Price et al., 2012, Cell Metab 15, 675-690). Tie2Cre and Sirt1^flox/flox mice were purchased from Jackson Laboratory (Bar Harbor, ME). MCK-PGC-1α and MyogCre mice were gifts from Dr. Bruce Spiegelman (Dana Farber Cancer Center, MA) and Dr. Eric N. Olson (UT Southwestern, Dallas, TX), respectively. mT-STOP^flox/flox, Gfp mouse was generated in house by E.O.W., which consists of an allele driven by ubiquitous actin B promoter, which has loxP sites flanking membrane-targeted tandem dimer Tomato (mT) and transcriptional STOP cassette, followed by a GFP coding sequence. […] SIRT1-iKO mice were fed tamoxifen (360 mg/kg) diet for five weeks to elicit whole-body SIRT1 exon 4 excision as described previously (Price et al., 2012). […] NMN stock was changed twice per week and […]4137 was supplemented daily. Axitinib (30 mg/kg/day) was given via food and changed daily. Freshly isolated whole quadriceps and gastrocnemius muscle samples were mounted in OCT compound (Tissue-Tek), placed in an isopentane bath and slowly cooled in liquid nitrogen. Transverse sections at 20 μm-thickness were sectioned on a cryostat (Leica). The sections were fixed in pre-cooled acetone (-20° C.) for 10 min and washed with PBS. […] Slides were washed with PBST and then incubated with anti-rat Alexa Fluor 488-conjugated (Life Technologies) and anti-rabbit Alexa Fluor 594-conjugated (Life Technologies) antibodies diluted to 1:500 in blocking buffer for 2 h at room temperature. Slides were washed again with PBST and mounted with Fluoroshield with DAPI mounting medium (Sigma). Images were acquired using a confocal fluorescence microscope (Nikon A1). Quantification of capillaries and capillary density were performed using ImageJ software. TUNEL staining was performed in muscle sections using in situ BrdU-Red DNA fragmentation (TUNEL) assay kit (Abcam) as per manufacturer's protocol.
smiles,measurement,setting,value
"NC(=O)c1ccc[n+]([C@@H]2O[C@H](COP(=O)([O-])O)[C@@H](O)[C@H]2O)c1 [NMN, nicotinamide mononucleotide]",NAD^+ levels in tissues,NAD^+,raised NAD^+ levels
same,percentage of cells undergoing early apoptosis,"HUVECs; NMN 500 μM 6 h, then H2O2 600 μM 4 h",reduced the percentage of cells undergoing early apoptosis
same,reduction of apoptosis in response to H2O2,"HUVECs; NaHS 0.1 mM and/or NMN 0.5 mM 6 hrs, then H2O2 600 μM 4 hrs",13%
same,oxygen consumption higher than non-treated control mice,C57BL/6J mice [1]; dark cycle,23%
same,oxygen consumption higher than non-treated control mice,C57BL/6J mice [1]; light cycle,30%
same,SIRT1 protein levels,SIRT1,increased SIRT1 protein levels
same,gastrocnemius capillarity,C57BL/6J mice [2]; 20-month old WT mice,increased capillaries; also recorded: increased gastrocnemius capillarity
same,gastrocnemius capillarity,C57BL/6J mice [2]; 20-month old tamoxifen-treated SIRT1-iKO mice,not in SIRT1-iKO mice; also recorded: no change
same,"number of capillaries and capillary density (quadriceps, gastrocnemius)",C57BL/6J mice [2]; old mice,restored
